# Measurements: US11819549B2, “Pharmaceutical formulation comprising ciclesonide” (Boehringer Ingelheim Vetmedica GmbH, priority 2012, dated 2023)
# Columns and labels:
# [1] = chemical stability of ciclesonide in ethanolic formulation as a function of pHapp; assay type: physicochemical; details: pHapp range of 4.0 to 4.6, no buffer
# From the text: To identify an appropriate pHapp in an ethanolic liquid formulation comprising ciclesonide is a challenge. On the one hand side the stability of ciclesonide is better at higher (more neutral) pH values. However, on the other hand, the pH should not be too high since at low [H^+] values already small amounts of contaminants and decomposition products can cause a relatively large change in pHapp. Furthermore, the use of a buffer for inhalable formulations is undesirable due to the administration of the buffer constituents to the lungs and the possibility of the buffer constituents forming a residue in the inhaler which may affect the spray characteristics of the aerosol. […] The addition of buffer is not necessary to create the advantageous formulation of the present invention.
# [2] = buffering capacity of ciclesonide in the ethanolic solution; assay type: physicochemical; details: ethanol/water solution acidified with HCl 0.1 M
# Protocol: More HCl is added than needed to achieve […] in demineralized water alone due to the buffering capacity of ciclesonide.
# [3] = taken orally; cited from earlier work
chemical stability of ciclesonide [1],buffering capacity [2] [μmol/g ciclesonide],Molecule,potency relative to cortisol [3] [times],potency relative to prednisone [3] [times]
chemically stable,−3.6,"CC(C)C(=O)OCC(=O)C12OC(C3CCCCC3)OC1CC1C3CCC4=CC(=O)C=CC4(C)C3C(O)CC12C [ciclesonide, (11β,16α)-16,17-[[(R)-Cyclohexylmethylene]bis(oxy)]-11-hydroxy-21-(2-methyl-1-oxopropoxy)pregna-1,4-diene-3,20-dione]",,
,,dexamethasone,27,7
